Test results: paper PMC11110755, “Structure-based virtual screening of unbiased and RNA-focused libraries to identify new ligands for the HCV IRES model system” (RSC Medicinal Chemistry, 2024)
≈ marks a conversion by molar mass, not a printed value. Where “and” joins values, the source holds several entries; their conditions need not be identical. Equal entries are not always repeated. Entries after “also recorded” stand apart in the source; their conditions may differ. Where two headings read alike, the source gives them in different places. Blank lines part the entries; values can stand above or below the compound they belong to.

Assays:
[1] = tested on: HCV IRES; set-up: method as in PMID 10866369; conditions: previously reported, Fig. 1; cited from earlier work
[2] = tested on: HCV IRES; set-up: method as in PMID 15380215; conditions: previously reported, Fig. 1; read-out: IC50 (Luciferase reporter gene assay); cited from earlier work
[3] = tested on: HCV IRES subdomain IIa; set-up: method as in PMID 16279767, PMID 24930829, PMID 27775338; conditions: previously reported, Fig. 1; read-out: EC50 (FRET assay); cited from earlier work
[4] = tested on: HCV IRES subdomain IIa in presence of total RNA from yeast; assay: Selectivity FRET assay in presence of competing total RNA from yeast; type: biochemical, hepatitis C virus; conditions: 1:5 m/m HCV IRES : total RNA from yeast
Protocol: For the HCV IRES-binding compounds (4, 5, 8–13, 8a–8c), a selectivity FRET assay in presence of total RNA from yeast (Roche) was performed. The ratio of the FRET HCV IRES subdomain IIa construct and the total RNA was set to 1 : 5 m/m. The preparation of the labelled RNA and the compounds was the same as in the binding assay. The yeast RNA was diluted to 7.88 mg L^−1 and supplemented with 100 nM HCV IRES and appropriate concentrations of the compounds (3.16-fold dilution series) in FRET buffer (Fig. S10 ^†). For each compound, triplicate measurements were performed. For each experiment, one DMSO negative control was carried out. The final DMSO concentration was always 2%.
(§1) FRET experiments were analyzed using GraphPad Prism (version 8.0.1., GraphPad Software, Boston, Massachusetts USA, https://www.graphpad.com).

[5] = tested on: HCV IRES subdomain IIa; assay: FRET assay monitoring ligand-induced conformational change of Cy3/Cy5-labelled HCV IRES subdomain IIa; type: biochemical, hepatitis C virus; conditions: for EC50: 100 nM Cy3/Cy5-labelled RNA, 10 mM HEPES pH 7.0, 2 mM MgCl2, 2% DMSO, ≥ = lower limit; for FRET-signal change / conformational change of HCV IRES subdomain IIa, in words: pre-screening 1000, 100, 10 and 0.001 μM
Protocol: For the FRET assay, a two stranded HCV IRES subdomain IIa carrying a 5′-Cy3-label on one and 5′-Cy5-label on the other strand (Cy3-[…], Cy5-[…], Biomers.net GmbH) was used as described previously.[22,53] All samples containing labelled RNA were treated under light protection. FRET experiments were performed on a Tecan Spark 10 M plate reader (excitation/emission: 480/670 nm) using black half area 96 well microplates (Greiner Bio-One), based on a protocol by Zhou et al.[53] The 5′-Cy3- and 5′-Cy5-labelled single strands were annealed by heating to 75 °C in FRET buffer (10 mM HEPES pH 7.0, 2 mM MgCl2) and cooled down to room temperature for at least 20 min. The 5′-Cy3/Cy5-labelled RNA was diluted to 100 nM in FRET buffer and supplemented with compounds 8–28 in appropriate concentrations. Compounds 4 and 5 were used as positive controls. For the initial screening, compounds were added in final concentrations of 1000, 100, 10 and 0.001 μM (Fig. S4 ^†). If a concentration dependent reduction of the FRET signal (Cy5-emission) was observed, EC50-values were determined using ligand concentrations from 1 mM to 100 nM in 3.16-fold (semi-logarithmic) dilution series. For those compounds, the Cy3 emission was measured at 535 nm to confirm a conformational change dependent reduction in the Cy5 emission signal via Cy3 emission increase (Fig. S7 ^†). For each experiment, one DMSO negative control was carried out. The final DMSO concentration was always 2%. Excitation and emission spectra were recorded for the Cy3/Cy5-labelled RNA (100 nM) in FRET buffer to confirm excitation (Cy3) and emission (Cy5) wavelength as well as for each compound (1 μM) in FRET buffer to exclude any interference with the cyanine dyes. All measurements were performed at least as triplicates for screening and EC50-determination.
as §1

[6] = target: HCV IRES subdomain IIa; set-up: method as in PMID 16279767; conditions: previously reported; read-out: KD (MS assay); cited from earlier work
[7] = target: HCV IRES subdomain IIa; type: binding, hepatitis C virus; conditions: for Kd / MST KD: 30 nM Cy5-labelled RNA, 10 mM HEPES pH 7.0, 2 mM MgCl2, 2% DMSO, ≥ = no saturation, n.b. no binding observed; for Kd: read-out: MST KD
Protocol: For the MST assay, the same sequence of the two stranded HCV IRES subdomain IIa as for the FRET assay was used. One strand was 5′-Cy5-labelled and the other strand was unmodified ([…], Cy5-[…], Biomers.net GmbH). All samples containing labelled RNA were treated under light protection. MST experiments were performed on a Monolith NT.115 from NanoTemper Technologies using standard uncoated capillaries. The strands were annealed by heating to 75 °C in MST buffer (10 mM HEPES pH 7.0, 2 mM MgCl2) and cooled down to room temperature for at least 20 min. The 5′-Cy5-labelled HCV IRES domain IIa RNA was diluted to 30 nM in MST buffer and supplemented with compounds 8–25 in appropriate concentrations. Compounds 4 and 5 were used as positive controls. For the initial screening, compounds were added to final concentrations of 1000 (or 316 if limited by solubility), 100, 10 and 0.001 μM (Fig. S5 ^†). If a concentration-dependent shift of thermophoresis was observed, KD-values were determined using concentrations ranging from 1 mM (if permitted by solubility, otherwise starting from 316 or 100 μM) to 0.01 μM in a 3.16-fold (semi-logarithmic) dilution series. For each experiment, one DMSO negative control was carried out. Final DMSO concentration was always 2%.
(§2) Off-target counter screens by MST were performed as described previously.[31,84] Briefly, the 5′-Cy5-labelled Tte preQ1-Riboswitch aptamer domain (Biomers.net GmbH) was heated to 75 °C for 5 min, cooled down to room temperature for at least 20 min and then diluted to 20 nM in MST buffer (50 mM Tris-HCl pH 7.5, 100 mM KCl, 25 mM MgCl2) and supplemented with compounds 4, 5, 8–13, 18, 21, 22 and 26 to final concentrations of 1000, 100, 10 and 0.001 μM. PreQ1 was used as a positive control. The 5′-Cy5-labelled B. angulatum SAM VI-Riboswitch aptamer domain (Eurofins Genomics GmbH) was heated to 75 °C for 5 min, cooled down to room temperature for at least 20 min and then diluted to 20 nM in MST buffer (50 mM Tris-HCl pH 7.5, 100 mM KCl, 25 mM MgCl2) and supplemented with compounds 5, 9 and 28 to final concentrations of 1000, 100, 10 and 0.001 μM. SAM was used as a positive control. For each experiment, one DMSO negative control was carried out. The final DMSO concentration was 2%. All measurements were performed at least as duplicates for pre-screening and triplicates for KD-determination. MST measurements were analyzed from signals after 18 s laser on-time using the MO.Affinity Analysis software (version 2.3) and exported for statistical analysis and plotting in GraphPad Prism (version 8.0.1., GraphPad Software, Boston, Massachusetts USA, https://www.graphpad.com).

[8] = tested on: Tte preQ1-Riboswitch aptamer domain; assay: MST off-target counter screen, preQ1-riboswitch aptamer domain; type: binding, Thermoanaerobacter tengcongensis; conditions: for preQ1-riboswitch binding / selectivity (MST-shift), in words: 1000, 100, 10 and 0.001 μM
Protocol: as §2

[9] = tested on: cellular replicon; set-up: method as in PMID 16279767; conditions: cited from earlier work
[10] = tested on: SAM VI-Riboswitch aptamer domain; assay: MST off-target counter screen, SAM VI-riboswitch aptamer domain; type: binding, B. angulatum; conditions: 1000, 100, 10 and 0.001 μM
Protocol: as §2

SMILES: Cc1cc2nc3ccc(N(C)C)cc3nc2cc1N [Compound 1]
- IC50 (Fluci reporter gene assay) [1]: 0.02 µg/mL (≈ 0.0793 µM)

SMILES: Cc1nc(/N=C(\N)NCCc2ccccc2)nc(C)c1OCCCN(C)C [Compound 2]
- IC50 [2]: 2.1 µM

SMILES: CN(C)CCCn1c(N)nc2ccccc21 [Compound 4]
- EC50 [3]: 50 µM
- FRET result in presence of competing total RNA, in words [4]: lower EC50-values
- EC50 [5]: 78 ± 35 µM
- Kd [6]: 100 µM and ≥ 100 µM

SMILES: CN(C)CCCn1c(N)nc2ccc3c(c21)CC(CN(C)C)CO3 (stereo not drawn) [Compound 5]
- EC50 [3]: 3.4 µM
- Kd [7]: 5.2 ± 0.8 µM
- EC50 [5]: 4.9 ± 2.6 µM
- preQ1-riboswitch binding / selectivity (MST-shift), in words [8]: Weak preQ1-riboswitch binding; also recorded: binding to the preQ1-riboswitch at very high concentrations
- antiviral activity in cellular replicon assay, in words [9]: antiviral activity
- toxicity in cellular replicon assay, in words [9]: minimal toxicity
- Kd [6]: 0.86 µM
- SAM-VI-riboswitch binding (MST-shift), in words [10]: no binding; also recorded: no MST shift

SMILES: CN(C)CCCNc1ccc2nc(N)oc2c1 [Compound 6]
- EC50 [3]: 25 µM

SMILES: NC1=Nc2ccccc2C2(CC2)N1 [Compound 7]
- EC50 [3]: 100 µM

- Kd [7]: ≥ 440 µM
- EC50 [5]: 413 ± 97 µM
SMILES: CCOc1ccc2c(C)nc(NC(=N)NC)nc2c1 [Compound 8]

- Kd [7]: 189 ± 20 µM
- EC50 [5]: 88 ± 12 µM
SMILES: CCOc1ccc2c(C)nc(NC(=N)N)nc2c1 [Compound 8a]

- lipophilic ligand efficiency LLE [7]: 2.9
- Kd [7]: 88 ± 2 µM
- EC50 [5]: 61 ± 19 µM
SMILES: CNC(=N)Nc1nc(C)c2ccc(OC)cc2n1 [Compound 8b]

- Kd [7]: 134 ± 43 µM
- EC50 [5]: 120 ± 24 µM
SMILES: COc1ccc2c(C)nc(NC(=N)N)nc2c1 [Compound 8c]

SMILES: Nc1nc(N2CCN(Cc3c(Cl)ccc(O)c3Cl)CC2)cc(=O)[nH]1 [Compound 9]
- MST KD [7]: n.b.
- FRET result in presence of competing total RNA, in words [4]: lower EC50-values; also recorded: reduced
- EC50 [5]: 217 ± 41 µM
- FRET-signal change / conformational change of HCV IRES subdomain IIa, in words [5]: signals in the FRET assay
- Kd ([8]; 20 nM Cy5-labelled aptamer, read-out: KD preQ1 riboswitch (MST)): 7.8 µM
- preQ1-riboswitch binding / selectivity (MST-shift), in words [8]: Weak preQ1-riboswitch binding; also recorded: binding to the preQ1-riboswitch at very high concentrations
- SAM-VI-riboswitch binding (MST-shift), in words [10]: no MST shift; also recorded: no binding; also recorded: no general RNA-promiscuity

- MST KD [7]: n.b.
- EC50 [5]: ≥ 500 µM
SMILES: NC(=O)c1c[nH]c2ccc(NC(=O)CCc3cc4n(n3)CCCNC4)cc12 [Compound 10]
- Cy3-emission change in FRET assay, in words ([5]; Cy3 emission at 535 nm): no increase of Cy3-emission
- FRET-signal change / conformational change of HCV IRES subdomain IIa, in words [5]: signals in the FRET assay
